Entries after “also recorded” stand apart in the source; their conditions may differ.
Columns and labels:
[1] = tested on: NLRP3 subunit of the inflammasome; assay: NLRP3 immunostaining in cells exposed to COVID-19 serum; type: cell-based, human; settings: cells pre-treated 3 hrs with PIP-2, then COVID-19 serum 1 hr; anti-NLRP3 immunostaining
Experimental: (§1) Cells were pre-treated for 3 hrs with PIP-2 and then with COVID-19 serum/normal serum for an hour. Cells were then fixed and NLRP3/caspase-1 were monitored by immunostaining with anti-NLRP3 or activated caspase-1 antibody. FIG. 4A: NLRP3 immunostaining. FIG. 4B: Quantification of the fluorescent signal using Metamorph imaging software *p<0.001. FIG. 4C: Caspase-1 immunostaining. FIG. 4D: Quantification of the fluorescent signal using Metamorph imaging software *p<0.05.
(§2) HPMVEC were incubated for three hours in the incubator at 37° C. and 5% CO2 with medium supplemented with either liposomes alone or PIP-2 in liposomes (concentration 10 nM) without 10% FBS. After 3 hours of incubation, cells were either treated with serum of a healthy individual or COVID-19 patients at admission to ICU along with either liposomes alone or PIP-2 in liposomes together for one hour and three hours for ROS measurement and ICAM-1 induction respectively.

[2] = biological target: T1, phospholipase A2 (PLA2) activity of peroxiredoxin 6 (Prdx6) (Homo sapiens, UniProt P30041); settings: earlier work / WO 2020/037146 A1; cited from earlier work
T1 sequence (P30041 1-224): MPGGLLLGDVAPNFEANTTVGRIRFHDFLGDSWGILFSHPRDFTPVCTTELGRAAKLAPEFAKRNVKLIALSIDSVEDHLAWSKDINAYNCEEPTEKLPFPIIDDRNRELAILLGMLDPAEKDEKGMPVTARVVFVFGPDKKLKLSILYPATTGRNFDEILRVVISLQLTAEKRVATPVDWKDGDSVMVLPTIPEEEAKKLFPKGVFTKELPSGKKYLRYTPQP

caspase-1 = assay: Activated caspase-1 immunostaining in cells exposed to COVID-19 serum; type: cell-based, human; settings: cells pre-treated 3 hrs with PIP-2, then COVID-19 serum 1 hr; activated caspase-1 antibody immunostaining
Experimental: as §1, §2

ICAM-1 = ICAM-1 immunostaining in HPMVEC exposed to COVID-19 serum; type: cell-based, human; settings: HPMVEC pre-treated 3 hrs with PIP-2 in liposomes (10 nM), then COVID-19 serum; anti-ICAM immunostaining
Experimental: Primary cultures of Human Pulmonary Microvascular Endothelial Cells (HPMVEC) were grown in a T-25 culture dish and routinely maintained in Dulbecco's Modified Eagle Medium (DMEM) supplemented with 10% fetal bovine serum (FBS), 1× glutamax, 1× antibiotics, and endothelial cell growth supplement (Millipore Upstate). Cells were grown and maintained in 5% CO2 at 37° C. Once grown to the appropriate density, cells were then split and grown on coverslips in 35 mm petri dishes. Cells were then treated either with medium supplemented with 10% serum from healthy individuals or COVID-19 patients at admission to ICU and then monitored for ROS production and ICAM-1 induction as described below.
HPMVEC were incubated for one hour in the incubator at 37° C. and 5% CO2 with medium supplemented with 10% serum either from a healthy individual or from patients suffering from COVID-19. The serum replaced the FBS which was otherwise used as a supplement in DMEM. Post incubation, cells were either fixed for ICAM-1 immuno-staining or the cells were stained for ROS measurement as described below. Serum from one healthy individual and seven COVID-19 patients were used in this study.
HPMVEC were incubated for three hours in the incubator at 37° C. and 5% CO2 with medium supplemented with either liposomes alone or PIP-2 in liposomes (concentration 10 nM) without 10% FBS. […]

[3] = tested on: Human Pulmonary Microvascular Endothelial Cells (HPMVEC); type: cell-based; settings: HPMVEC pre-treated 3 hrs with PIP-2 in liposomes (10 nM), then COVID-19 serum 1 hr; CellROX fluorescence
lung oxidative injury = settings: earlier work; cited from earlier work

| Compound | NLRP3 expression [1] | inhibition of PLA2 (aiPLA2) activity of Prdx6 [2] | caspase 1 expression (caspase-1) | ICAM-1 expression (endothelial inflammatory phenotype) (ICAM-1) | ROS production (endothelial activation) post COVID-19 serum exposure [3] | protection against lung oxidative injury (lung oxidative injury) |
| --- | --- | --- | --- | --- | --- | --- |
| LHDFRHQIL (in liposomes) [PIP-2, tested in liposomes] | significantly reduced; also recorded: decreased | specific for inhibition of aiPLA2 activity | significantly reduced; also recorded: decreased | prevented the appearance of an endothelial inflammatory phenotype; also recorded: significantly reduced; also recorded: decreased; also recorded: significantly reverse | protected the endothelium from activation; also recorded: significant decrease; also recorded: decreased; also recorded: able to reduce the endothelial activation; also recorded: significantly reverse | – |
| CCCCCCCCCCCCCCCCOCC(COCC(F)(F)F)OP(=O)(O)OC (stereo not drawn) [MJ33] | – | – | – | – | – | able to protect against lung oxidative injury |
